Source: US20160176859A1, “High-Throughput Assay for Identifying Small Molecules that Modulate AMP-activated Protein Kinase (AMPK)” (North Carolina Central University, priority 2013, published 2016)
Entries after “also recorded” stand apart in the source; their conditions may differ. Where two headings read alike, the source gives them in different places.

How the values were obtained:
[1] = biological target: T1, full-length AMPK (rat His-α1, β1, γ1) (Rattus norvegicus, UniProt P54645+P80385); experiment: MANT-ADP fluorescence displacement (binding) assay, full-length AMPK; details: for thiol-reactivity: binding curves in the presence and absence of DTT: 0-1 mM DTT
T1 construct: Tricistronic vectors encoding full-length AMPK (rat His-α1, β1, γ1); made in house; host or cells: Rosetta cells (E. coli), tricistronic vector, gift of Dr. Uwe Schlattner
T1 sequence (P54645 with tags, fused parts or gaps limits assumed): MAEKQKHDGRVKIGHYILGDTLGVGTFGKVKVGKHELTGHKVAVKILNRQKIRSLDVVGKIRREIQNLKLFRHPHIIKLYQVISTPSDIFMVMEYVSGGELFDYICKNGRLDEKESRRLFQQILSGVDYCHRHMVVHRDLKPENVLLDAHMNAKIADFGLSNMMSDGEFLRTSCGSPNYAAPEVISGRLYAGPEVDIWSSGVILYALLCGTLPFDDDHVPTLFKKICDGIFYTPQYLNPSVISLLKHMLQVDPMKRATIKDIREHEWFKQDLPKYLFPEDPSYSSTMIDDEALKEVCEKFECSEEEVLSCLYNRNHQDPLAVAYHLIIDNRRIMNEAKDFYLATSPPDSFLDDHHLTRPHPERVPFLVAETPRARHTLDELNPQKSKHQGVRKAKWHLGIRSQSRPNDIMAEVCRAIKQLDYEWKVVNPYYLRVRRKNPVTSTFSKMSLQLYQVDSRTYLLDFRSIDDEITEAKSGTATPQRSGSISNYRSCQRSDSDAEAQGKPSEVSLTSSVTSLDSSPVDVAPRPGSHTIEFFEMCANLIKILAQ
T1 sequence (P80386 whole entry partner): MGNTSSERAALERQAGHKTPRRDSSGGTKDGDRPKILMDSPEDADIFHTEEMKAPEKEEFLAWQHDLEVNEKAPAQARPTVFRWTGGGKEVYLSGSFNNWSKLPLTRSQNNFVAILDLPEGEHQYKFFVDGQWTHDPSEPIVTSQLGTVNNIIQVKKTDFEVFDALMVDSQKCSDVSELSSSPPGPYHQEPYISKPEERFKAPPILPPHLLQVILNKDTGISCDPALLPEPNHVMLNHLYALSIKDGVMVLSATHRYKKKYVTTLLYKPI
T1 sequence (P80385 whole entry): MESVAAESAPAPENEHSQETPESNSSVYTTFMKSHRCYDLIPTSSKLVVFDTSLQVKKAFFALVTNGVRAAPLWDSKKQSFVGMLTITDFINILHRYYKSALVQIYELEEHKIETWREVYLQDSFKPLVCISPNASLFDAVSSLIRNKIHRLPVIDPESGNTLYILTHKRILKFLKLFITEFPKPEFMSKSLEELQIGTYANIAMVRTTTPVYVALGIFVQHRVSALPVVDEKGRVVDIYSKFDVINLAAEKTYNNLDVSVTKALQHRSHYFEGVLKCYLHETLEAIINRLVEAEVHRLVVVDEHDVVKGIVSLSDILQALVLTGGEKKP
Protocol: (§1) Except where otherwise noted, assays were performed with the following conditions: 0.5 μM full-length AMPK (130 kDa) or 0.5 μM regulatory fragment (66.7 kDa), 0.1 μM MANT-ADP, 10 mM Tris-HCl (pH 8), 0.45% DMSO (vehicle and negative control), and 5 μM ADP (positive control). Automated assays were assembled in two steps. First, a NanoQuot (BioTek) was used to dispense 11 μL of master mix (protein, MANT-ADP, and Tris-HCl) per well in black, low volume 384-well plates (Corning-3676). Next, a Biomek NX workstation (Beckman-Coulter, Brea, Calif.) equipped with pintools (VP Scientific, San Diego Calif.) was used to transfer 50 nL of controls (columns 1, 2, 23, and 24) and small molecules (4.5 μM final). Controls and library molecules were transferred from Axygen 384-well rigid PCR plates (Cat no. 321-67-051) at 221× concentration for single-concentration screening. Plates were shaken for 10 minutes prior to reading.
(§2) Fluorescence emission spectra of MANT-ADP were collected using a PerkinElmer EnSpire plate reader with an excitation wavelength of 360 nm. Background fluorescence from protein was subtracted from the raw data prior to plotting MANT-ADP's fluorescence in the presence of protein. Fluorescence detection for assay development and screening was performed on either a BMG Pherastar Plus (360/10 excitation and 460/10 emission filters) or a PerkinElmer EnVision (355/40 excitation and 460/25 emission filters), depending on equipment availability. Relative fluorescence units (RFUs) were recorded at room temperature.
(§3) ScreenAble (ScreenAble Solutions, Chapel Hill, N.C.) high-throughput screening software was utilized for merging screening data and chemical structure, for statistical design of experiments, and hit selection. GraphPad Prism was used for non-linear regression analysis of dose response data.
(§4) Binding assays. Except where otherwise noted, assay assembly and data analysis were completed according to published methods. Binding assays were manually assembled, with the exception of the similarity screen. Automated assembly of the similarity screen was completed according to published methods. Analogs were cherry-picked from a 10 mM Asinex small molecule library and a 0.5 mM kinase focused library, which has been described previously (4). Molecules were screened at a final concentration of 45 and 2.3 μM, respectively.

[2] = biological target: T2, p-AMPK in the presence of PP2C (Rattus norvegicus, UniProt P54645+P80385); experiment: Phosphatase assay: protection of p-AMPK from dephosphorylation by PP2C; format: biochemical; details: p-AMPK/total AMPK ratio normalized to no-PP2C control
T2 construct: Full-length AMPK intended for use in phosphatase and kinase assays was purified, mixed with GST-CaMKKβ; made in house; host or cells: Rosetta cells (E. coli); phosphorylated in vitro with GST-CaMKKβ, which was then removed
T2 sequence (P54645 with tags, fused parts or gaps limits assumed): as the sequence (P54645 with tags, fused parts or gaps limits assumed) above
T2 sequence (P80386 whole entry partner): as the sequence (P80386 whole entry partner) above
T2 sequence (P80385 whole entry): as the sequence (P80385 whole entry) above
Protocol: Phosphatase assays. Assay conditions were adapted from published methods (18). In short, the final assay buffer was compromised of 50 mM Tris (pH 7.5), […], 0.01% Triton X-100, 1 mM DTT, and 0.45% DMSO (vehicle). Because some analogs had poor solubility at high concentrations, all analogs and controls were diluted in assay buffer and centrifuged (1 min, 5000 rpm, 4° C.) to remove insoluble matter. PP2C and p-AMPK were added to the supernatant at final concentrations of 2 and 3 ng/μL, respectively. Phosphatase reactions were allowed to proceed for 30 minutes at 37° C. Reactions were stopped by the addition of loading buffer and 48 mM DTT followed promptly by freezing at −20° C.
Western analyses. Protein samples were boiled for 15 minutes in loading buffer and DTT prior to SDS-PAGE. Blots for protein-based assays were sequentially incubated with the following: 5% BSA in 1× TBS (1 hr, 22° C.), 1:1000 rabbit anti-human p-AMPK-α antibody or p-ACC antibody (2 hr, 22° C.), and 1:10,000 donkey anti-rabbit secondary antibody (1 hr, 22° C.). Blots for phosphatase assays were probed a second time using 1:100 mouse anti-human total AMPK antibody (overnight, 4° C.; from UNC Antibody Core Facility) followed by 1:10,000 donkey anti-mouse secondary antibody (1 hr, 22° C.). […]

[3] = biological target: T3, purified p-AMPK (Rattus norvegicus, UniProt P54645+P80385); experiment: Kinase assay with purified p-AMPK and GST-ACC peptide; format: biochemical; details: compared to DMSO control
T3 construct: Full-length AMPK intended for use in phosphatase and kinase assays was purified, mixed with GST-CaMKKβ; made in house; host or cells: Rosetta cells (E. coli); phosphorylated in vitro with GST-CaMKKβ, which was then removed on glutathione resin
T3 sequence (P54645 with tags, fused parts or gaps limits assumed): as the sequence (P54645 with tags, fused parts or gaps limits assumed) above
T3 sequence (P80386 whole entry partner): as the sequence (P80386 whole entry partner) above
T3 sequence (P80385 whole entry): as the sequence (P80385 whole entry) above
Protocol: Kinase assays. Assay conditions were adapted from published methods (17). The final assay buffer was comprised of 40 mM Hepes (pH 7.4) 5 mM MgCl2, 200 μM ATP, 75 mM NaCl, 0.01% Triton X-100, 1 mM DTT, and 0.45% DMSO (vehicle). Because some analogs had poor solubility at high concentrations, all analogs and controls were diluted in assay buffer and centrifuged (1 min, 5000 rpm, 4° C.) to remove insoluble matter. GST-ACC peptide and p-AMPK were thawed, diluted in assay buffer, and then added to the supernatant at final concentrations of 900 and 0.1 ng/μL, respectively. Kinase assays were assembled on ice; reactions were allowed to proceed for 30 minutes at room temperature. Reactions were stopped by the addition of loading buffer and 48 mM DTT followed promptly by freezing at −20° C.
(§5) Western analyses. Protein samples were boiled for 15 minutes in loading buffer and DTT prior to SDS-PAGE. Blots for protein-based assays were sequentially incubated with the following: 5% BSA in 1× TBS (1 hr, 22° C.), 1:1000 rabbit anti-human p-AMPK-α antibody or p-ACC antibody (2 hr, 22° C.), and 1:10,000 donkey anti-rabbit secondary antibody (1 hr, 22° C.). Blots for phosphatase assays were probed a second time using 1:100 mouse anti-human total AMPK antibody (overnight, 4° C.; from UNC Antibody Core Facility) followed by 1:10,000 donkey anti-mouse secondary antibody (1 hr, 22° C.). Blots for clarified cell lysates were sequentially probed for p-AMPK (1:500 dilution, overnight at 4° C. or 4 hours at 22° C.), total ACC (1:1000 dilution, overnight at 4° C. or 4 hours at 22° C.), and tubulin (1:10,000 dilution, 1 hr, 22° C.); a parallel set of blots were probed for p-ACC (1:500 dilution, overnight at 4° C. or 4 hours at 22° C.), total AMPK (1:1000 dilution, overnight at 4° C. or 4 hours at 22° C.), and tubulin (1:10,000 dilution, 1 hr, 22° C.). Because phosphorylated and total protein were imaged on separate membranes, the signals were normalized to the internal tubulin signal prior to calculating the ratio of phosphorylated to total protein. Scanning and imaging were completed according to published methods.

[4] = system: p-ACC levels in HEK cells; experiment: Cell-intact assay, p-ACC levels in HEK cells; format: cell-based, human
Protocol: Cell-intact assays. HEK cells were grown in DMEM with 10% FBS and 1% penicillin/streptomycin at 37° C. A subset of plates was serum-starved for 5 hours on the day of the experiment. After 5 hours of serum-starvation, cells were treated with either controls (0.2% DMSO, A-769662, or Compound C) or small molecules in the absence of serum for an additional hour prior to lysis. Another subset of plates was serum-starved for 6 hours and then treated with either controls or small molecules for 1 hour in the presence of 10% FBS. A time course of both AMPK and ACC phosphorylation in HEK cells during serum starvation has already been published (Pirkmajer S, Chibalin A V. Serum starvation: caveat emptor. American journal of physiology Cell physiology. 2011 August; 301(2):C272-9. PubMed PMID: 2161361).
After incubating in the presence of drugs for one hour, cells were washed three times with ice-cold PBS and lysed according to published methods (Kazgan N, Williams T, Forsberg L J, Brenman J E. Identification of a nuclear export signal in the catalytic subunit of AMP-activated protein kinase. Molecular biology of the cell. 2010 Oct. 1; 21(19):3433-42. PubMed PMID: 20685962. Pubmed Central PMCID: 2947478). Lysates were centrifuged at 16,000 g (10 minutes, 4° C.). Clarified supernatant (30 μL) was then transferred to 10 μL 4X loading buffer and 2 μL 1 M DTT. Samples were immediately frozen at −20° C. The concentration of protein in diluted clarified supernatant was calculated using a DC protein assay kit (BioRad) prior to western analyses.
as §5

[5] = biological target: T4, AMPK regulatory fragment (rat His-α1, 396-548; human β2, 187-272; rat γ1) (Rattus norvegicus, UniProt P80385); experiment: MANT-ADP fluorescence displacement (binding) assay, AMPK regulatory fragment; details: inhibition of MANT-ADP fluorescence; for IC50: read-out: IC50 (data in parentheses)
T4 construct: rat His-α1, 396-548; human β2, 187-272; rat γ1; made in house; host or cells: Rosetta cells (E. coli), tricistronic vector, gift of Dr. Steve Gamblin
T4 sequence (P54645 407-559 partner limits assumed): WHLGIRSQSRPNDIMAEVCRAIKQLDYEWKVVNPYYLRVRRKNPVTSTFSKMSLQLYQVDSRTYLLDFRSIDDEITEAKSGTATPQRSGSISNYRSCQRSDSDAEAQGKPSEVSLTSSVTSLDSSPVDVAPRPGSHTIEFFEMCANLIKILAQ
T4 sequence (O43741 187-272 partner limits assumed): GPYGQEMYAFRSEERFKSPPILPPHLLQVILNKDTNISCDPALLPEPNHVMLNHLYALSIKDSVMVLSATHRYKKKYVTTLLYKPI
T4 sequence (P80385 whole entry, the tested form may be a part): as the sequence (P80385 whole entry) above
Protocol: as §1, §2, §3, §4

[6] = system: phospho-AMPKα in HEK cells; experiment: Western blot of treated HEK cells for phospho-AMPKα (Example 3); format: cell-based, human; details: for AMPK modulatory activity / phospho-AMPKα (Western blot, FIG. 7): HEK cells; for phospho-AMPKα (Western blot, FIG. 7): standardized to tubulin; for phospho-AMPK (FIG. 8): human Hek293 cells
Protocol: Approximately 50 compounds will be tested from those identified above using the methods and assays described herein on HEK cells in culture in 6 well plate format for their ability to enter cells and modulate AMPK, initially at 1 μM, 2 μM, 10 μM and 20 μM compound in 0.1% DMSO. […] Molecular biology of the cell 23, 381-389, doi:10.1091/mbc.E11-08-0699 (2012)). Examples of this approach with compounds identified from our preliminary screening that have AMPK modulatory activity are shown in FIG. 7. […] See also FIG. 8. […] By testing under multiple conditions, the likelihood of identifying agonists and antagonists of AMPK activity in vivo, and particularly those that are not dependent on a particular means of altering AMPK activity may increase.
The phosphorylation status of AMPKα with a phospho-specific antibody (against the activation/T-loop threonine 172) (Cell Signaling) will be quantified. […] Molecular biology of the cell 21, 3433-3442, doi:10.1091/mbc.E10-04-0347 (2010)) (FIG. 7). […] In addition, phospho-ACC (Cell Signaling) will be measured by western blot. Cytoplasmic acetyl coenzyme A carboxylase (ACC) is the best known AMPK direct downstream target, and is a rate-limiting enzyme in the energy consuming process of fatty acid synthesis (Davies, S. P. et al. Purification of the AMP-activated protein kinase on ATP-gamma-sepharose and analysis of its subunit structure. European journal of biochemistry/FEBS 223, 351-357 (1994); Carling, D., Zammit, V. A. & Hardie, D. G. A common bicyclic protein kinase cascade inactivates the regulatory enzymes of fatty acid and cholesterol biosynthesis. FEBS Lett 223, 217-222 (1987)). Phospho-ACC will be standardized to both tubulin and total (non-phospho) ACC to ensure we are not measuring changes in total ACC levels. Compounds that modulate phospho-AMPKα and phospho-ACC status in the same direction (both increase or both decrease) will be prioritized over compounds that produce different affects on AMPKα versus ACC phosphorylation for in vitro kinase or phosphatase protection assays.

[7] = full-length AMPK, Example 4, read-out: binding IC50
[8] = full-length AMPK, inhibition of MANT-ADP fluorescence
[9] = full-length AMPK, inhibition of MANT-ADP fluorescence, read-out: IC50

inhibition of the protein-bound signal of MANT-ADP in the triplicate similarity screen ([1]; final concentration 45 μM)	IC50 [1, 7]	protection of p-AMPK from dephosphorylation [2]	activity of purified p-AMPK (phosphorylation of GST-ACC peptide), dose response [3]	Hill slope ([1]; full-length AMPK, Example 4)	Hill slope [1, 8]	IC50 [1, 9]	Hill slope (data in parentheses) [5]	IC50 [5]	IC50 ([1]; 1 mM DTT, read-out: extrapolated IC50 in the presence of DTT)	SMILES	p-ACC levels, serum-treated HEK cells ([4]; 10% serum)	p-ACC levels, serum-starved HEK cells ([4]; serum-starved, 1 hour treatment)	thiol-reactivity: binding curves in the presence and absence of DTT [1]	AMPK modulatory activity [6]	phospho-AMPKα (Western blot, FIG. 7) [6]	phospho-AMPK (FIG. 8) [6]
reproducibly inhibited	< 5 µM	failed to protect								CCCOC(=O)c1cc(-c2ccc(/C=C3\SC(=S)NC3=O)o2)ccc1Cl [BAS 03338548, Propyl 2-chloro-5-(5-{[(5Z)-4-oxo-2-sulfanylidene-1,3-thiazolidin-5-ylidene]methyl}furan-2-yl)benzoate]						
			dose-dependently inhibited							O=C1/C(=C/c2ccc(-c3ccc(F)cc3)o2)SC(=S)N1CCS(=O)(=O)O [STK823366, 2-[(5Z)-5-{[5-(4-fluorophenyl)furan-2-yl]methylidene}-4-oxo-2-sulfanylidene-1,3-thiazolidin-3-yl]ethane-1-sulfonic acid]	decreased phosphorylation; also recorded: decreases	decreased phosphorylation				
	9 µM			1.2	1.4 (1.4)	2.9 µM	1.4 (1.4)	1.6 µM		Cc1ccc(-c2ccc(/C=C3\SC(=S)N(CC(=O)O)C3=O)o2)cc1 [STK740822, 2-{(5Z)-5-{[5-(4-Methylphenyl)furan-2-yl]methylidene}-4-oxo-2-sulfanylidene-1,3-thiazolidin-3-yl}acetic acid]			not thiol-reactive	activating activity	increased	increase
					1.3	2.7 µM	1.4	1.5 µM	~250 µM	O=C1Nc2ccc(Br)cc2/C1=C1/SC(=S)N(C(Cc2ccccc2)C(=O)O)C1=O (stereo not shown) [STL035166]			dramatically different dose response curve	inhibitory activity	decreased	increase
